How the values were obtained:
[1] = Concentration required to decrease the initial concentration of 2,2-diphenyl-1-picrylhydrazyl (DPPH) by 50% after 60 min
[2] = Antioxidant ability determined by the parameter antiradical power that is related to the factor EC50

EC50 [1] | ARP [2] | SMILES
1.44 mM | 0.7 m/M | C/C=C/C1CC(=O)CC(=O)O1 (stereo not drawn)
7.13 mM | 0.14 m/M | COc1ccc(C2CC(=O)CC(=O)O2)cc1OC (stereo not drawn)
7.61 mM | 0.13 m/M | COc1ccc(C2CC(=O)CC(=O)O2)cc1 (stereo not drawn)
1.4 mM | 0.71 m/M | O=C1CC(=O)OC(c2ccccc2)C1 (stereo not drawn)

— ChEMBL document CHEMBL1138702, “Determination of the free radical scavenging activity of dihydropyran-2,4-diones” (Bioorg Med Chem Lett, 2004)
